Patent US6642392B1 (priority 1997, dated 2003)
Where two headings read alike, the source gives them in different places.

Legend:
Type in all cases: in vivo
Phytophthora infestans = conditions: for Test D disease control rating (100 = 100% disease control, 0 = no disease control): tomato seedlings sprayed to run-off, inoculated the following day, rating relative to controls, unmarked compounds (standard test rate); for Test D disease control rating: tomato late blight
Puccinia recondita = test: Test B: wheat leaf rust, preventive spray on wheat seedlings; conditions: for Test B disease control rating (100 = 100% disease control, 0 = no disease control): wheat seedlings sprayed to run-off, inoculated the following day, rating relative to controls, unmarked compounds (standard test rate); for Test B disease control rating: wheat leaf rust
Procedure, shortened: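 Wheat seedlings were sprayed to run-off with compound (3% acetone, 250 ppm Trem 014), then inoculated with P. recondita spores the next day. They were held 24 h saturated at 20 °C, then 6 days at 20 °C. Ratings are 0–100% disease control versus controls.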

Pyricularia oryzae = conditions: for Test C disease control rating (100 = 100% disease control, 0 = no disease control): rice seedlings sprayed to run-off, inoculated the following day, rating relative to controls, unmarked compounds (standard test rate); for Test C disease control rating: rice blast
Botrytis cinerea = test: Test E: gray mold, preventive spray on cucumber seedlings; conditions: for Test E disease control rating (100 = 100% disease control, 0 = no disease control): cucumber seedlings sprayed to run-off, inoculated the following day, rating relative to controls, unmarked compounds (standard test rate); for Test E disease control rating: gray mold on cucumber
Procedure, shortened: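 Compounds in 3% acetone were suspended with 250 ppm Trem 014 surfactant and sprayed to run-off on cucumber seedlings. B. cinerea spores were inoculated next day, then 48 h saturated humidity at 20° C and 5 days at 20° C. Disease control rated 0–100% versus controls.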

[1] = test system: Eiysiphe graminis f. sp. tritici; test: Test A: wheat powdery mildew, preventive spray on wheat seedlings; conditions: for Test A disease control rating (100 = 100% disease control, 0 = no disease control): wheat seedlings sprayed to run-off, inoculated the following day, rating relative to controls, unmarked compounds (standard test rate); for Test A disease control rating: wheat powdery mildew
Procedure, shortened: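 Compounds (3% acetone, 250 ppm Trem 014) sprayed to run-off on wheat seedlings, inoculated next day with spore dust. Incubated 7 days at 20° C before disease rating, 0–100% control relative to untreated controls.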

[2] = 100 = 100% disease control, 0 = no control, unmarked entries (standard test concentration)
[3] = 100 = 100% disease control, 0 = no control relative to controls, unmarked entries (standard test concentration)

Row | Structure (SMILES) | Test D disease control rating (Phytophthora infestans; [2]) [%] | Test B disease control rating (Puccinia recondita; [2]) [%] | Test C disease control rating (Pyricularia oryzae; [2]) [%] | Test E disease control rating (Botrytis cinerea; [2]) [%] | Test A disease control rating [1, 3] [%] | further results
1 | C=CCc1cccc(C#N)c1OCC(C)NC(=O)C(C#N)C(C)C(C)(C)C (mixture of isomers) [compound 275] | – | – | – | – | – | Test D disease control rating (100 = 100% disease control, 0 = no disease control) (Phytophthora infestans): 0%; Test B disease control rating (100 = 100% disease control, 0 = no disease control) (Puccinia recondita): 0%; Test C disease control rating (100 = 100% disease control, 0 = no disease control) (Pyricularia oryzae): 53%; Test E disease control rating (100 = 100% disease control, 0 = no disease control) (Botrytis cinerea): 99%; Test A disease control rating (100 = 100% disease control, 0 = no disease control) [1]: 0%
2 | CC(COc1c(Cl)cccc1Cl)NC(=O)C(C#N)C(C)(C)C (mixture of isomers) [compound 34] | 0 | 85 | 91 | 0 | 62 | –
3 | CCC1(C(=O)NC(C)COc2c(F)cccc2F)C(C)C1(Cl)Cl (mixture of isomers) [105a] | 0 | 0 | 53 | 55 | 0 | –
4 | C=CCc1ccccc1OCC(C)NC(=O)C1(C)CC1(Cl)Cl (mixture of isomers) [compound 314] | – | – | – | – | – | Test D disease control rating (100 = 100% disease control, 0 = no disease control) (Phytophthora infestans): 0%; Test B disease control rating (100 = 100% disease control, 0 = no disease control) (Puccinia recondita): 0%; Test C disease control rating (100 = 100% disease control, 0 = no disease control) (Pyricularia oryzae): 72%; Test E disease control rating (100 = 100% disease control, 0 = no disease control) (Botrytis cinerea): 0%; Test A disease control rating (100 = 100% disease control, 0 = no disease control) [1]: 0%
5 | C[C@H](COc1ccc(F)cc1Cl)NC(=O)C(C#N)C(C)(C)C (single isomer, unassigned) [37a] | 68 | 68 | 100 | 0 | 62 | –
6 | CC(COc1cc(F)c(F)cc1C#N)NC(=O)C(C#N)C(C)(C)C (mixture of isomers) [compound 207] | 0 | 0 | 0 | 0 | 0 | –
7 | CCC1(C(=O)NCCCc2ccccc2)C(C)C1(Cl)Cl (stereo not shown) [compound 154] | 0 | 0 | 52 | 0 | 52 | –
8 | C[C@H](COc1cc(F)cc(F)c1)NC(=O)C(C#N)C(C)(C)C (single isomer, unassigned) [184a] | 0 | 0 | 74 | 6 | 62 | –
9 | CCC1(C(=O)NC(C)COc2cc(F)ccc2F)C(C)C1(Cl)Cl (stereo not shown) [compound 107] | – | – | – | – | – | Test D disease control rating (Phytophthora infestans; tested at 40 ppm): 0%; Test B disease control rating (Puccinia recondita; tested at 40 ppm): 0%; Test C disease control rating (Pyricularia oryzae; tested at 40 ppm): 100%; Test E disease control rating (Botrytis cinerea; tested at 40 ppm): 0%; Test A disease control rating ([1]; tested at 40 ppm): 71%
10 | CC(COc1ccccc1CC#N)NC(=O)C(C#N)C(C)C(C)(C)C (mixture of isomers) [compound 61] | – | – | – | – | – | Test D disease control rating (Phytophthora infestans; tested at 40 ppm): 0%; Test B disease control rating (Puccinia recondita; tested at 40 ppm): 0%; Test C disease control rating (Pyricularia oryzae; tested at 40 ppm): 73%; Test E disease control rating (Botrytis cinerea; tested at 40 ppm): 0%; Test A disease control rating ([1]; tested at 40 ppm): 74%
11 | CCC1(C(=O)NCC=C(C)c2ccccc2)C(C)C1(Cl)Cl (stereo not shown) [compound 268] | – | – | – | – | – | Test D disease control rating (100 = 100% disease control, 0 = no disease control) (Phytophthora infestans): 88%; Test B disease control rating (100 = 100% disease control, 0 = no disease control) (Puccinia recondita): 0%; Test C disease control rating (100 = 100% disease control, 0 = no disease control) (Pyricularia oryzae): 91%; Test E disease control rating (100 = 100% disease control, 0 = no disease control) (Botrytis cinerea): 0%; Test A disease control rating (100 = 100% disease control, 0 = no disease control) [1]: 38%
12 | C[C@H](COc1cc(F)ccc1F)NC(=O)C(C#N)C(C)(C)C=CF (single isomer, unassigned) [221a] | – | – | – | – | – | Test D disease control rating (100 = 100% disease control, 0 = no disease control) (Phytophthora infestans): 41%; Test B disease control rating (100 = 100% disease control, 0 = no disease control) (Puccinia recondita): 0%; Test C disease control rating (100 = 100% disease control, 0 = no disease control) (Pyricularia oryzae): 100%; Test E disease control rating (100 = 100% disease control, 0 = no disease control) (Botrytis cinerea): 0%; Test A disease control rating (100 = 100% disease control, 0 = no disease control) [1]: 0%
13 | CC(COc1ccc(C(C)(C)C)cc1)NC(=O)C(C#N)C(C)(C)C (mixture of isomers) [compound 24] | 66 | 0 | 53 | 94 | 62 | –
14 | C[C@H](COc1cc(F)cc(F)c1)NC(=O)C(C#N)C(C)(C)C (single isomer, unassigned) [184b] | 9 | 0 | 74 | 45 | 62 | –
15 | CC(COc1c(F)ccc(F)c1C#N)NC(=O)C(C#N)C(C)(C)C (mixture of isomers) [compound 208] | 45 | 28 | 94 | 0 | 0 | –
16 | C[C@H](COc1ccc(F)c(F)c1Br)NC(=O)C(C#N)C(C)(C)C (single isomer, unassigned) [187b] | 91 | 68 | 94 | 6 | 77 | –
17 | CC(COc1ccccc1F)NC(=O)C(C#N)C(C)(C)C (mixture of isomers) [2a] | 0 | 0 | 0 | 55 | 0 | –
18 | C=CC(C)(C)C(C#N)C(=O)NC(C)COc1cc(F)ccc1F (mixture of isomers) [compound 214] | 23 | 0 | 100 | 0 | 0 | –
19 | C=CCc1cc(C)ccc1OCC(C)NC(=O)C(C#N)C(C)(C)C (mixture of isomers) [compound 185] | 9 | 28 | 86 | 45 | 0 | –
20 | C=CCc1cccc(C#N)c1OCC(C)NC(=O)C(C#N)C(C)(C)C (mixture of isomers) [compound 204] | 0 | 0 | 74 | 0 | 0 | –
21 | CCC1(C(=O)NC(C)COc2ccccc2I)C(C)C1(Cl)Cl (mixture of isomers) [87b] | – | – | – | – | – | Test D disease control rating (Phytophthora infestans; tested at 40 ppm): 0%; Test B disease control rating (Puccinia recondita; tested at 40 ppm): 0%; Test C disease control rating (Pyricularia oryzae; tested at 40 ppm): 0%; Test E disease control rating (Botrytis cinerea; tested at 40 ppm): 0%; Test A disease control rating ([1]; tested at 40 ppm): 52%
22 | C[C@H](COc1ccccc1Br)NC(=O)C(C#N)C(C)(C)C (single isomer, unassigned) [8c] | 0 | 0 | 100 | 0 | 0 | –
23 | CC(COc1c(F)cccc1C#N)NC(=O)C(C#N)C(C)(C)C (mixture of isomers) [compound 203] | 0 | 28 | 91 | 0 | 0 | –
